In assay [1] the test system is WNV virus, Kunjin strain (KUNV). Nature of the assay: Antiviral activity against the WNV virus Kunjin strain in HeLa cells (nanoluciferase reporter). Format: cell-based. Conditions: West Nile virus, KUNV-luciferase reporter virus, MOI=0.1, 24 h.
The test system of assay [2] is ZIKV BeH8 strain. Nature of the assay: Antiviral activity against the Zika virus in HeLa cells (viral RNA by qRT-PCR). Conditions: for pIC50: Zika virus, HeLa, 24 h, read-out: IC50 ZIKV.
For assay [3], the system named is MAYV virus, TRVL4576 strain. Nature of the assay: Antiviral activity against the Mayaro virus in HeLa cells (luciferase reporter). Conditions: 24 h, read-out: IC50 MAYV.
The subject of assay [4] is CHIKV virus, LR-OPY1 strain. Put plainly: Antiviral activity against the Chikungunya virus in HeLa cells (luciferase/GFP reporter). Conditions: for pIC50: Chikungunya virus, HeLa, 24 h, read-out: IC50 CKV.
Assay [5] relates to SARS-COV2 virus, BetaCoV/France/IDF0371/2020. Nature of the assay: Antiviral activity against SARS-COV2 coronavirus in VeroE6 cells (viral RNA by qRT-PCR). The class given is cell-based. The note with it: 1.25 μM, 24 h.

pIC50: −log10 of the molar value.

`Cc1ccc(C(=O)Nc2cccc(-c3c[nH]c4ncc(-c5ccccc5)cc34)c2)c(=O)n1-c1ccc(F)cc1` [Compound 4, 1-(4-fluorophenyl)-6-methyl-2-oxo-1,2-dihydro-pyridine-3-carboxylic acid [3-(5-phenyl-1H-pyrrolo[2,3-b]pyridin-3-yl)-phenyl]-amide]: the pIC50 is 5.88 in assay [1], 6.54 in assay [2], 6.50 in assay [3] and 6.61 in assay [4]. Also, the “concentration that prevents infection of the Hela cells by the strain ZIKV BeH-8” value in assay [2] (HeLa cells, MOI=0.1, 24 h) is listed as “greater than or equal to 100 nM”. The “concentration that prevents infection of the Hela cells by the Chikungunya virus” value in assay [4] (HeLa cells, MOI=0.1, 24 h) is recorded as “greater than or equal to 100 nM”.

Molecule `Cc1ccc(C(=O)Nc2ccc(F)c(-c3c[nH]c4ncc(-c5ccccc5)cc34)c2)c(=O)n1-c1ccc(F)cc1` [Compound 15, 1-(4-fluorophenyl)-6-methyl-2-oxo-1,2-dihydro-pyridine-3-carboxylic acid [4-fluoro-3-(5-phenyl-1H-pyrrolo[2,3-b]pyridin-3-yl)-phenyl]-amide] showed a pIC50 in assay [1] of 6.03.

For the molecule `O=C(Nc1ccc(F)cc1)C1(C(=O)Nc2cccc(-c3c[nH]c4ncc(-c5ccccc5)cc34)c2)CC1` [Compound 5, Cyclopropane-1,1-dicarboxylic acid (4-fluoro-phenyl)-amide [3-(5-phenyl-1H-pyrrolo[2,3-b]pyridin-3-yl)-phenyl]-amide], the “effect on infection of the cells by the SARS-COV2 virus” value in assay [5] is “reduces the infection”.

Consider `Nc1nc(Nc2ccc3c(c2)CC[C@@H](N2CCCC2)CC3)nn1-c1cc2c(nn1)-c1ccccc1CCC2` [R428/Bemcentinib, reference compound], for which the negative-log IC50 (pIC50) in assay [2] was 6.55; in assay [4] it was 6.62.
